In patent US12539292B2, “BRM targeting compounds and associated methods of use” (Arvinas Operations, Inc., priority 2018, dated 2026):

Target: T1, BRM (Homo sapiens, UniProt P51531)
T1 construct: In-Cell Western Screen of BRM Degradation in SW1573 Cells; endogenous in cells; host or cells: SW1573
Assay: In-cell Western screen of BRM degradation in SW1573 cells (Dmax and DC50)
Format: cell-based
Details: BRM degradation, SW1573 cells; for DC50: read-out: DC50; for Dmax: tested at the top concentration of between 0.3 and 10 μM, read-out: Dmax (%) (% degraded)
Procedure, shortened: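 Near-infrared imaging on a LI-COR Odyssey (800 and 680 nm channels) quantifies BRM remaining in fixed SW1573 cells. Cells are dosed for 18-20 h at 0.1% final DMSO, and degradation is expressed as Dmax and DC50.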

T1 sequence (P51531 whole entry): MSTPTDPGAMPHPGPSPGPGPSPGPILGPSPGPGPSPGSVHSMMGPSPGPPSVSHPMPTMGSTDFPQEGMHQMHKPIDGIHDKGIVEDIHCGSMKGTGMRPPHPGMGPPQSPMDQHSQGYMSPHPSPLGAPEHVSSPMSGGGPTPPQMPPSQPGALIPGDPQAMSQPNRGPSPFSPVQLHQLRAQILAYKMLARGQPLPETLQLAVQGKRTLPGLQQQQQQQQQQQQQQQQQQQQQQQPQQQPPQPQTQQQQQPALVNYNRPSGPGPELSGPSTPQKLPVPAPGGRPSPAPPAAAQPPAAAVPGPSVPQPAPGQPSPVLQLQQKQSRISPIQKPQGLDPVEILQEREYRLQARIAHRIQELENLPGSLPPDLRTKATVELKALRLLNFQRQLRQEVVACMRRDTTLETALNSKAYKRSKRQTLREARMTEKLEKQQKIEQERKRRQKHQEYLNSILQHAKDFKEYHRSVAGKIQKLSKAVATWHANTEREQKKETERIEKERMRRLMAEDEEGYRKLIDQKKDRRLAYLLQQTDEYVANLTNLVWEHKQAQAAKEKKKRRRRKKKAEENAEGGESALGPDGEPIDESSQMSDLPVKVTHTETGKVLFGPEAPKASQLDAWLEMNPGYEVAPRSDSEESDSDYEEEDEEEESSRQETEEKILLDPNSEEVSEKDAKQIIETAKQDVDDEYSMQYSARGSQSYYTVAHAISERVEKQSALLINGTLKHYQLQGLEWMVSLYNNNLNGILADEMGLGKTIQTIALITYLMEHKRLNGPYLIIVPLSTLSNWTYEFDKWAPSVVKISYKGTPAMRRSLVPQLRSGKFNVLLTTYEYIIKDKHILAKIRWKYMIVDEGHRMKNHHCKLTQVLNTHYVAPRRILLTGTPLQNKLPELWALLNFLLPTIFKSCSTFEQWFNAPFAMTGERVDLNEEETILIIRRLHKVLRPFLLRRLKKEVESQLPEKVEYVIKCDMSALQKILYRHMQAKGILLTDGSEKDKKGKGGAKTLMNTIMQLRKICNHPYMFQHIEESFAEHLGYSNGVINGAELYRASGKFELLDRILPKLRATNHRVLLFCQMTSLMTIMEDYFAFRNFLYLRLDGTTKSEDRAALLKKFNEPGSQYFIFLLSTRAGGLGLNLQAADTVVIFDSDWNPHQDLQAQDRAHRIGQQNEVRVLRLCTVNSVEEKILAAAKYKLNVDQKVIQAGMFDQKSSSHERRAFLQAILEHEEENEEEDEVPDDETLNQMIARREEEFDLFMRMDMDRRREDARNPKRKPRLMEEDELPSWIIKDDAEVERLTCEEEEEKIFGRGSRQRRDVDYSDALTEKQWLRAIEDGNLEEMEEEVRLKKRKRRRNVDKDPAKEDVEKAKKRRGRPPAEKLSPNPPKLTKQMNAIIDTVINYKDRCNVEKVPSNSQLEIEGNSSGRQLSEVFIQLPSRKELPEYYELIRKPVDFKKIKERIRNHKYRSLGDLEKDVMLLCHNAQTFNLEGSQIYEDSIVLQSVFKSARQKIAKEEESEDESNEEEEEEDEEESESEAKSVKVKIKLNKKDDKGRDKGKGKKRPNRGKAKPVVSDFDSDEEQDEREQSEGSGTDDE

| Structure (SMILES) | DC50 | Dmax |
| --- | --- | --- |
| Cc1ncsc1-c1ccc([C@H](C)NC(=O)[C@@H]2C[C@@H](O)CN2C(=O)[C@H](c2cc(OCC#Cc3ccc(O[C@H]4C[C@H](Oc5cc(N6C7CCC6CN(c6cc(-c8ccccc8O)nnc6N)C7)ccn5)C4)cn3)no2)C(C)C)cn1 [compound 236, (2S,4R)-1-((2S)-2-(3-((3-(5-((1r,3S)-3-((4-(3-(3-amino-6-(2-hydroxyphenyl)pyridazin-4-yl)-3,8-diazabicyclo[3.2.1]octan-8-yl)pyridin-2-yl)oxy)cyclobutoxy)pyridin-2-yl)prop-2-yn-1-yl)oxy)isoxazol-5-yl)-3-methylbutanoyl)-4-hydroxy-N-((S)-1-(6-(4-methylthiazol-5-yl)pyridin-3-yl)ethyl)pyrrolidine-2-carboxamide] | > 30 nM | > 75% |
| Cc1ncsc1-c1ccc([C@H](C)NC(=O)[C@@H]2C[C@@H](O)CN2C(=O)[C@@H](c2cc(OCC#Cc3ccc(O[C@H]4C[C@H](Oc5cc(N6C7CCC6CN(c6cc(-c8ccccc8O)nnc6N)C7)ccn5)C4)cn3)no2)C(C)C)cn1 [compound 237, (2S,4R)-1-((2R)-2-(3-((3-(5-((1r,3R)-3-((4-(3-(3-amino-6-(2-hydroxyphenyl)pyridazin-4-yl)-3,8-diazabicyclo[3.2.1]octan-8-yl)pyridin-2-yl)oxy)cyclobutoxy)pyridin-2-yl)prop-2-yn-1-yl)oxy)isoxazol-5-yl)-3-methylbutanoyl)-4-hydroxy-N-((S)-1-(6-(4-methylthiazol-5-yl)pyridin-3-yl)ethyl)pyrrolidine-2-carboxamide] | < 2.5 nM | > 75% |
| Cc1ncsc1-c1ccc([C@H](C)NC(=O)[C@@H]2C[C@@H](O)CN2C(=O)[C@@H](c2cc(OCCN3CCC(O[C@H]4C[C@H](C#CCn5cc(-c6cc(-c7ccccc7O)nnc6N)cn5)C4)CC3)no2)C(C)C)cc1 [compound 238, (2S,4R)-1-((R)-2-(3-(2-(4-((1r,3R)-3-(3-(4-(3-amino-6-(2-hydroxyphenyl)pyridazin-4-yl)-1H-pyrazol-1-yl)prop-1-yn-1-yl)cyclobutoxy)piperidin-1-yl)ethoxy)isoxazol-5-yl)-3-methylbutanoyl)-4-hydroxy-N-((S)-1-(4-(4-methylthiazol-5-yl)phenyl)ethyl)pyrrolidine-2-carboxamide] | < 2.5 nM | > 75% |
| Cc1ncsc1-c1ccc([C@H](C)NC(=O)[C@@H]2C[C@@H](O)CN2C(=O)[C@H](c2cc(OCCN3CCC(O[C@H]4C[C@H](Oc5cc(N6C7CCC6CN(c6cc(-c8ccccc8O)nnc6N)C7)ccn5)C4)CC3)no2)C(C)C)c(F)c1 [compound 239, (2S,4R)-1-((2S)-2-(3-(2-(4-((1r,3S)-3-((4-(3-(3-amino-6-(2-hydroxyphenyl)pyridazin-4-yl)-3,8-diazabicyclo[3.2.1]octan-8-yl)pyridin-2-yl)oxy)cyclobutoxy)piperidin-1-yl)ethoxy)isoxazol-5-yl)-3-methylbutanoyl)-N-((S)-1-(2-fluoro-4-(4-methylthiazol-5-yl)phenyl)ethyl)-4-hydroxypyrrolidine-2-carboxamide] | > 30 nM | > 75% |
| Cc1ncsc1-c1ccc([C@H](C)NC(=O)[C@@H]2C[C@@H](O)CN2C(=O)[C@@H](c2cc(OCCN3CCC(O[C@H]4C[C@H](Oc5cc(N6C7CCC6CN(c6cc(-c8ccccc8O)nnc6N)C7)ccn5)C4)CC3)no2)C(C)C)c(F)c1 [compound 240, (2S,4R)-1-((2R)-2-(3-(2-(4-((1r,3R)-3-((4-(3-(3-amino-6-(2-hydroxyphenyl)pyridazin-4-yl)-3,8-diazabicyclo[3.2.1]octan-8-yl)pyridin-2-yl)oxy)cyclobutoxy)piperidin-1-yl)ethoxy)isoxazol-5-yl)-3-methylbutanoyl)-N-((S)-1-(2-fluoro-4-(4-methylthiazol-5-yl)phenyl)ethyl)-4-hydroxypyrrolidine-2-carboxamide] | < 2.5 nM | > 75% |
| Cc1ncsc1-c1ccc([C@H](C)NC(=O)[C@@H]2C[C@@H](O)CN2C(=O)[C@H](c2cc(O[C@H]3C[C@H](CN4CCC(O[C@H]5C[C@H](Oc6cc(N7C8CCC7CN(c7cc(-c9ccccc9O)nnc7N)C8)ccn6)C5)CC4)C3)no2)C(C)C)cc1 [compound 241, (2S,4R)-1-((2S)-2-(3-((1R,3S)-3-((4-((1r,3R)-3-((4-(3-(3-amino-6-(2-hydroxyphenyl)pyridazin-4-yl)-3,8-diazabicyclo[3.2.1]octan-8-yl)pyridin-2-yl)oxy)cyclobutoxy)piperidin-1-yl)methyl)cyclobutoxy)isoxazol-5-yl)-3-methylbutanoyl)-4-hydroxy-N-((S)-1-(4-(4-methylthiazol-5-yl)phenyl)ethyl)pyrrolidine-2-carboxamide] | 2.5 to 10 nM | > 75% |
| Cc1ncsc1-c1ccc([C@H](C)NC(=O)[C@@H]2C[C@@H](O)CN2C(=O)[C@@H](c2cc(O[C@H]3C[C@H](CN4CCC(O[C@H]5C[C@H](Oc6cc(N7C8CCC7CN(c7cc(-c9ccccc9O)nnc7N)C8)ccn6)C5)CC4)C3)no2)C(C)C)cc1 [compound 242, (2S,4R)-1-((2R)-2-(3-((1R,3R)-3-((4-((1r,3R)-3-((4-(3-(3-amino-6-(2-hydroxyphenyl)pyridazin-4-yl)-3,8-diazabicyclo[3.2.1]octan-8-yl)pyridin-2-yl)oxy)cyclobutoxy)piperidin-1-yl)methyl)cyclobutoxy)isoxazol-5-yl)-3-methylbutanoyl)-4-hydroxy-N-((S)-1-(4-(4-methylthiazol-5-yl)phenyl)ethyl)pyrrolidine-2-carboxamide] | < 2.5 nM | > 75% |
| Cc1ncsc1-c1ccc([C@H](NC(=O)[C@@H]2C[C@@H](O)CN2C(=O)[C@@H](c2cc(OCCN3CCC(O[C@H]4C[C@H](Oc5cc(N6C7CCC6CN(c6cc(-c8ccccc8O)nnc6N)C7)ccn5)C4)CC3)no2)C(C)C)C(F)F)cn1 [compound 243, (2S,4R)-1-((2R)-2-(3-(2-(4-((1r,3R)-3-((4-(3-(3-amino-6-(2-hydroxyphenyl)pyridazin-4-yl)-3,8-diazabicyclo[3.2.1]octan-8-yl)pyridin-2-yl)oxy)cyclobutoxy)piperidin-1-yl)ethoxy)isoxazol-5-yl)-3-methylbutanoyl)-N-((S)-2,2-difluoro-1-(6-(4-methylthiazol-5-yl)pyridin-3-yl)ethyl)-4-hydroxypyrrolidine-2-carboxamide] | < 2.5 nM | > 75% |
| Cc1ncsc1-c1ccc([C@@H](NC(=O)[C@@H]2C[C@@H](O)CN2C(=O)[C@@H](c2cc(OCCN3CCC(O[C@H]4C[C@H](Oc5cc(N6C7CCC6CN(c6cc(-c8ccccc8O)nnc6N)C7)ccn5)C4)CC3)no2)C(C)C)C(F)F)cn1 [compound 244, (2S,4R)-1-((2R)-2-(3-(2-(4-((1r,3R)-3-((4-(3-(3-amino-6-(2-hydroxyphenyl)pyridazin-4-yl)-3,8-diazabicyclo[3.2.1]octan-8-yl)pyridin-2-yl)oxy)cyclobutoxy)piperidin-1-yl)ethoxy)isoxazol-5-yl)-3-methylbutanoyl)-N-((R)-2,2-difluoro-1-(6-(4-methylthiazol-5-yl)pyridin-3-yl)ethyl)-4-hydroxypyrrolidine-2-carboxamide] | < 2.5 nM | > 75% |
| Cc1ncsc1-c1ccc([C@@H](NC(=O)[C@@H]2C[C@@H](O)CN2C(=O)[C@H](c2cc(OCCN3CCN(CCOc4cc(N5C6CCC5CN(c5cc(-c7ccccc7O)nnc5N)C6)ccn4)CC3)no2)C(C)C)C(=O)N(C)C2CCC2)cc1 [compound 245, (2S,4R)-1-((2S)-2-(3-(2-(4-(2-((4-(3-(3-amino-6-(2-hydroxyphenyl)pyridazin-4-yl)-3,8-diazabicyclo[3.2.1]octan-8-yl)pyridin-2-yl)oxy)ethyl)piperazin-1-yl)ethoxy)isoxazol-5-yl)-3-methylbutanoyl)-N-((R)-2-(cyclobutyl(methyl)amino)-1-(4-(4-methylthiazol-5-yl)phenyl)-2-oxoethyl)-4-hydroxypyrrolidine-2-carboxamide] | 2.5 to 10 nM | > 75% |
| Cc1ncsc1-c1ccc([C@@H](NC(=O)[C@@H]2C[C@@H](O)CN2C(=O)[C@@H](c2cc(OCCN3CCN(CCOc4cc(N5C6CCC5CN(c5cc(-c7ccccc7O)nnc5N)C6)ccn4)CC3)no2)C(C)C)C(=O)N(C)C2CCC2)cc1 [compound 246, (2S,4R)-1-((2R)-2-(3-(2-(4-(2-((4-(3-(3-amino-6-(2-hydroxyphenyl)pyridazin-4-yl)-3,8-diazabicyclo[3.2.1]octan-8-yl)pyridin-2-yl)oxy)ethyl)piperazin-1-yl)ethoxy)isoxazol-5-yl)-3-methylbutanoyl)-N-((R)-2-(cyclobutyl(methyl)amino)-1-(4-(4-methylthiazol-5-yl)phenyl)-2-oxoethyl)-4-hydroxypyrrolidine-2-carboxamide] | < 2.5 nM | > 75% |
| CC(C)[C@H](C(=O)N1C[C@H](O)C[C@H]1C(=O)N[C@@H](C)c1ccc(C(F)(F)F)cc1)c1cc(OCCN2CCC(O[C@H]3C[C@H](Oc4cc(N5C6CCC5CN(c5cc(-c7ccccc7O)nnc5N)C6)ccn4)C3)CC2)no1 [compound 247, (2S,4R)-1-((2S)-2-(3-(2-(4-((1r,3S)-3-((4-(3-(3-amino-6-(2-hydroxyphenyl)pyridazin-4-yl)-3,8-diazabicyclo[3.2.1]octan-8-yl)pyridin-2-yl)oxy)cyclobutoxy)piperidin-1-yl)ethoxy)isoxazol-5-yl)-3-methylbutanoyl)-4-hydroxy-N-((S)-1-(4-(trifluoromethyl)phenyl)ethyl) pyrrolidine-2-carboxamide] | > 30 nM |  |
| CC(C)[C@@H](C(=O)N1C[C@H](O)C[C@H]1C(=O)N[C@@H](C)c1ccc(C(F)(F)F)cc1)c1cc(OCCN2CCC(O[C@H]3C[C@H](Oc4cc(N5C6CCC5CN(c5cc(-c7ccccc7O)nnc5N)C6)ccn4)C3)CC2)no1 [compound 248, (2S,4R)-1-((2R)-2-(3-(2-(4-((1r,3R)-3-((4-(3-(3-amino-6-(2-hydroxyphenyl)pyridazin-4-yl)-3,8-diazabicyclo[3.2.1]octan-8-yl)pyridin-2-yl)oxy)cyclobutoxy)piperidin-1-yl)ethoxy)isoxazol-5-yl)-3-methylbutanoyl)-4-hydroxy-N-((S)-1-(4-(trifluoromethyl)phenyl)ethyl) pyrrolidine-2-carboxamide] | > 30 nM |  |
